Data on two compounds can be found in patent US20260283950A1, “TRI-AZOLE ANTIFUNGAL COMPOSITIONS” (priority 2023, published 2026).

Data set [1] can be described thus: Preparation of solutions in semifluorinated alkanes, appearance of the composition. In kind it is physicochemical. As to the method:
14 mg efinaconazole (purity >99%) is weighed in a 5-ml glass vial; 2 ml F6H8 (Novaliq, purity >99%) is added into the vial by using a pipette, closed with aluminium crimp cap and shaken for 4 hours at 280 mpm, at RT.
20 mg efinaconazole (purity >99%) is weighed in a 5-ml glass vial; the needed volume of the cosolvent is added into the vial by using a pipette; the vial is shaken by hand gentle; the needed volume of F6H8 (Novaliq, purity >99%) is added by using a pipette, closed with aluminium crimp cap and shaken for 4 hours at 280 mpm, at RT.
Following the procedure described in the Examples 1 and 2, the following compositions were prepared (Table 1):
20 mg terbinafine (free base; purity >98%) is weighed in a 5-ml glass vial; 2 ml F6H8 (Novaliq, purity >99%) is added into the vial by using a pipette, closed with aluminium crimp cap and shaken overnight at 280 mpm, at RT.
Following the aforementioned procedure the following compositions were prepared (Table 6): […]

The test system of another data set is T. interdigitale. The data set is described as follows: In vitro nail penetration/inhibition model (Bovine Hoof Sheets soaked in product, zone of inhibition). The settings on record: BHS soaked 24 hours in product, incubation at 28° C. 5 days. It counts as cell-based. Here is the method:
Three test products containing 0.1% to 10% efinaconazole were tested in vitro for their capabilities to inhibit growth of a representative dermatophyte (T. interdigitale) that is known to cause onychomycosis and tinea pedis in humans: • (a) 0.1% efinaconazole, dissolved in a mixture of F6H8 and 2-propanol (10:1 v/v %), non-aqueous (8-9), • (b) 1.0% efinaconazole, dissolved in a mixture of F6H8 and 2-propanol (9:1 v/v %), non-aqueous (4-7), • (c) 10% efinaconazole, aqueous commercial product (“Jublia”; Bausch Health, Bridgewater, USA) (10-11). As reference products, DMSO was utilized as negative control (1), terbinafine (100 μg/ml in DMSO) as positive control (2) and F6H8 as vehicle control (3). […] Bovine Hoof Sheets (BHS; 400 μm thickness, 16 mm diameter), an established in vitro surrogate for human nails in transungual permeation studies, were soaked in excess in the three test products and the three reference products for 24 hours. Afterwards the BHS were taken from the soaking baths and remaining residues of the test and reference products were thoroughly removed. Then, BHS were transferred and placed onto freshly plated T. interdigitale culture plates. […] Experimental details and results are depicted in Table 2 below: […]

For `C=C1CCN([C@H](C)[C@](O)(Cn2cncn2)c2ccc(F)cc2F)CC1` [Efinaconazole, efinaconazole], the Appearance result in data set [1] (7 mg/mL efinaconazole in F6H8, no cosolvent) is “clear solution”; in data set [1] (10 mg/mL efinaconazole, F6H8 (90 vol %), 2-propanol (10 vol %)) it was “clear solution”; in data set [1] (15 mg/mL efinaconazole, F4H5 (90 vol %), 2-propanol (10 vol %)), “clear solution”; in data set [1] (15 mg/mL efinaconazole, F4H10 (90 vol %), 2-propanol (10 vol %)), “clear solution”; in data set [1] (15 mg/mL efinaconazole, F6H8 (85 vol %), 2-propanol (10 vol %), 1-Methyl-2-pyrrolidon (5 vol %)), “clear solution”; in data set [1] (15 mg/mL efinaconazole, F6H8 (85 vol %), 2-propanol (10 vol %), Ethyl acetate (5 vol %)), “clear solution”. Also, the Appearance entry in data set [1] (15 mg/mL efinaconazole, F6H8 (85 vol %), 2-propanol (10 vol %), N,N-Dimethyl acetamide (5 vol %)) was “clear solution”; in data set [1] (15 mg/mL efinaconazole, F6H8 (85 vol %), 2-propanol (10 vol %), N,N-Dimethyl formamide (5 vol %)), “clear solution”; in data set [1] (25 mg/mL efinaconazole, F6H8 (75 vol %), 2-propanol (25 vol %)), “clear solution”.

In the case of `CN(C/C=C/C#CC(C)(C)C)Cc1cccc2ccccc12` [terbinafine], the Appearance entry in data set [1] (1 mg/mL terbinafine in F4H5, no cosolvent) is listed as “clear solution”; in data set [1] (1 mg/mL terbinafine in F6H8, no cosolvent), “clear solution”; in data set [1] (5 mg/mL terbinafine in F4H5, no cosolvent), “clear solution”; in data set [1] (5 mg/mL terbinafine in F6H8, no cosolvent), “clear solution”; in data set [1] (10 mg/mL terbinafine in F6H8, no cosolvent), “clear solution”; in data set [1] (10 mg/mL terbinafine, F4H5, ethanol (10 vol %)), “clear solution”. Further, the Appearance result in data set [1] (10 mg/ml terbinafine, F6H8 (90 vol %), 2-propanol (10 vol %)) was “clear solution”; in data set [1] (15 mg/mL terbinafine in F6H8, no cosolvent), “clear solution”; in data set [1] (20 mg/mL terbinafine, F6H8 (90 vol %), ethanol (10 vol %)), “clear solution”; in data set [1] (20 mg/ml terbinafine, F6H8 (90 vol %), 2-propanol (10 vol %)) it was “clear solution”. Moreover, the “Results (inhibition zone, in words)” value in the data set on T. interdigitale was “nearly complete inhibition”. For the same compound, the zone of inhibition at 100 µg/mL with T. interdigitale (Trichophyton interdigitale, 120 h, read-out: zones of inhibition) was in the range of 56 to 58 mm.
